Counter-ions that a name gives are not always drawn.
| Compound | melting point |
| --- | --- |
| c1ccc(-c2nc3c(C4CC4)nc4ccccc4c3n2CCC2CCNCC2)cc1 (as salt: fumarate) (hydrate or solvate) [Example 110, 4-Cyclopropyl-2-phenyl-1-[2-(4-piperidyl)ethyl]-1H-imidazo[4,5-c]quinoline] | 142.5 to 147 °C (dec.) |
| CN(C)CCn1c(-c2ccc[nH]2)nc2c(C(F)(F)F)nc3ccccc3c21 (as salt: fumarate) [Example 51, 1-(2-Dimethylaminoethyl)-2-(2-pyrrolyl)-4-trifluoromethyl-1H-imidazo[4,5-c]-quinoline] | 228 to 230 °C (dec.) |
| FC(F)(F)c1nc2ccccc2c2c1nc(-c1ccccc1)n2CCC1CCCNC1 (centres unmarked) (as salt: trifluoroacetate) | 229.5 to 231.5 °C (dec.) |
| FC(F)(F)c1nc2ccccc2c2c1nc(-c1ccccc1)n2CCC1CC2CCC(C1)N2 (centres unmarked) (as salt: trifluoroacetate) | 249 to 251 °C (dec.) |
| FC(F)(F)c1nc2cc(Cl)ccc2c2c1nc(-c1ccco1)n2CCC1CCNCC1 (as salt: trifluoroacetate) | 219 to 221 °C (dec.) |
| Cc1ccc2c(c1)nc(C(F)(F)F)c1nc(-c3ccccc3O)n(CCC3CCNCC3)c12 (as salt: trifluoroacetate) | 161 to 162 °C |
| Fc1ccc2c(c1)nc(C(F)(F)F)c1nc(-c3ccco3)n(CCC3CCNCC3)c12 (as salt: trifluoroacetate) (hydrate or solvate) | 239 to 241 °C (dec.) |
| Cc1cccc2c1nc(C(F)(F)F)c1nc(-c3ccco3)n(CCC3CCNCC3)c12 (as salt: trifluoroacetate) (hydrate or solvate) | 232 to 234 °C (dec.) |
| FC(F)(F)c1nc2ccccc2c2c1nc(-c1cccs1)n2CCC1CCNCC1 (as salt: trifluoroacetate) (hydrate or solvate) [Example 66, 1-[2-(4-Piperidyl)ethyl]-2-(2-thienyl)-4-trifluoromethyl-1H-imidazo[4,5-c]-quinoline] | 237 to 239 °C |
| FC(F)(F)c1nc2cc(Cl)ccc2c2c1nc(-c1cccs1)n2CCC1CCNCC1 (as salt: trifluoroacetate) (hydrate or solvate) [Example 77, 7-Chloro-1-[2-(4-piperidyl)ethyl]-2-(2-thienyl)-4-trifluoromethyl-1H-imidazo-[4,5-c]quinoline] | 217 to 219 °C (dec.) |
| Fc1ccc2c(c1)nc(C(F)(F)F)c1nc(-c3ccc[nH]3)n(CCC3CCNCC3)c12 (as salt: trifluoroacetate) (hydrate or solvate) [Example 81, 7-Fluoro-1-[2-(4-piperidyl)ethyl]-2-(2-pyrrolyl)-4-trifluoromethyl-1H-imidazo-[4,5-c]quinoline] | 252 to 254 °C (dec.) |
| Cc1ccc2c(c1)nc(C(F)(F)F)c1nc(-c3ncc[nH]3)n(CCC3CCNCC3)c12 (as salt: trifluoroacetate) (hydrate or solvate) [Example 89, 2-(2-1H-Imidazolyl)-7-methyl-1-[2-(4-piperidyl)ethyl]-4-trifluoromethyl-1H-imidazo[4,5-c]quinoline] | 303 to 305 °C (dec.) |
| Cc1cccc2c1nc(C(F)(F)F)c1nc(-c3ccc[nH]3)n(CCC3CCNCC3)c12 (as salt: trifluoroacetate) (hydrate or solvate) [Example 94, 6-Methyl-1-[2-(4-piperidyl)ethyl]-2-(2-pyrrolyl)-4-trifluoromethyl-1H-imidazo-[4,5-c]quinoline] | 233 to 234 °C (dec.) |
| Cc1cccc2c1nc(C(F)(F)F)c1nc(-c3ncc[nH]3)n(CCC3CCNCC3)c12 (as salt: trifluoroacetate) (hydrate or solvate) [Example 96, 2-(2-1H-Imidazolyl)-6-methyl-1-[2-(4-piperidyl)ethyl]-4-trifluoromethyl-1H-imidazo[4,5-c]quinoline] | 306 to 308 °C (dec.) |
| FC(F)(F)c1nc2ccccc2c2c1nc(-c1ccccc1)n2CCC1CNCCO1 (centres unmarked) (as salt: trifluoroacetate) (hydrate or solvate) [Example 101, 1-[2-(2-Morpholinyl)ethyl]-2-phenyl-4-trifluoromethyl-1H-imidazo[4,5-c]-quinoline] | 224 to 228 °C (dec.) |
| N#Cc1nc2ccccc2c2c1nc(-c1ccccc1)n2CCC1CCNCC1 (as salt: trifluoroacetate) (hydrate or solvate) [Example 117, 4-Cyano-2-phenyl-1-[2-(4-piperidyl)ethyl]-1H-imidazo[4,5-c]quinoline] | 245 to 251 °C (dec.) |
| O=C(O)c1nc2ccccc2c2c1nc(-c1ccccc1)n2CCC1CCNCC1 (as salt: trifluoroacetate) (hydrate or solvate) [Example 118, 2-Phenyl-1-[2-(4-piperidyl)ethyl]-1H-imidazo[4,5-c]quinoline-4-carboxylic acid] | 212 to 215 °C |
| FC(F)(F)c1nc2ccccc2c2c1nc(C1CCCCC1)n2CCC1CCNCC1 (as salt: trifluoroacetate) [Example 71, 2-Cyclohexyl-1-[2-(4-piperidyl)ethyl]-4-trifluoromethyl-1H-imidazo[4,5-c]quinoline] | 182.5 to 184 °C |
| FC(F)(F)c1nc2cc(Cl)ccc2c2c1nc(-c1ncc[nH]1)n2CCC1CCNCC1 (as salt: trifluoroacetate) [Example 75, 7-Chloro-2-(2-1H-imidazolyl)-1-[2-(4-piperidyl)ethyl]-4-trifluoromethyl-1H-imidazo[4,5-c]quinoline] | 290 to 295 °C (dec.) |
| FC(F)(F)c1nc2cc(Cl)ccc2c2c1nc(C1CCCCC1)n2CCC1CCNCC1 (as salt: trifluoroacetate) [Example 79, 7-Chloro-2-cyclohexyl-1-[2-(4-piperidyl)ethyl]-4-trifluoromethyl-1H-imidazo-[4,5-c]quinoline] | 236 to 237 °C (dec.) |
| Fc1ccc2c(c1)nc(C(F)(F)F)c1nc(-c3ccccc3)n(CCC3CCNCC3)c12 (as salt: trifluoroacetate) [Example 80, 7-Fluoro-2-phenyl-1-[2-(4-piperidyl)ethyl]-4-trifluoromethyl-1H-imidazo[4,5-c]-quinoline] | 240 to 242 °C (dec.) |
| Fc1ccc2c(c1)nc(C(F)(F)F)c1nc(-c3nccs3)n(CCC3CCNCC3)c12 (as salt: trifluoroacetate) [Example 82, 7-Fluoro-1-[2-(4-piperidyl)ethyl]-2-(2-thiazolyl)-4-trifluoromethyl-1H-imidazo-[4,5-c]quinoline] | 236 to 237 °C (dec.) |
| Cc1cccc2c1nc(C(F)(F)F)c1nc(-c3ccccc3)n(CCC3CCNCC3)c12 (as salt: trifluoroacetate) [Example 93, 6-Methyl-2-phenyl-1-[2-(4-piperidyl)ethyl]-4-trifluoromethyl-1H-imidazo-[4,5-c]quinoline] | 218 to 219 °C (dec.) |
| Cc1cccc2c1nc(C(F)(F)F)c1nc(-c3nccs3)n(CCC3CCNCC3)c12 (as salt: trifluoroacetate) [Example 95, 6-Methyl-1-[2-(4-piperidyl)ethyl]-2-(2-thiazolyl)-4-trifluoromethyl-1H-imidazo-[4,5-c]quinoline] | 243 to 245 °C (dec.) |

The next lines start with the values.

| melting point | Compound |
| --- | --- |
| 224.5 to 225.5 °C | c1ccc(-c2nc3c(-c4ccco4)nc4ccccc4c3n2CCC2CCNCC2)cc1 |
| 210 to 212 °C | c1ccc(-c2nc3c(-c4cccs4)nc4ccccc4c3n2CCC2CCNCC2)cc1 (as salt: salt) [Example 115, 2-Phenyl-1-[2-(4-piperidyl)ethyl]-4-(2-thienyl)-1H-imidazo[4,5-c]quinoline] |
| 246 to 248 °C (dec.) | FC(F)(F)c1nc2cc(Cl)ccc2c2c1nc(C1CCCC1)n2CCC1CCNCC1 (as salt: trifluoroacetate) |
| 133.5 to 136.5 °C (dec.) | FC(F)(F)c1nc2ccccc2c2c1nc(-c1ccco1)n2CCC1CCNCC1 (as salt: trifluoroacetate) (hydrate or solvate) |
| 249 to 250 °C (dec.) | Fc1ccc2c(c1)nc(C(F)(F)F)c1nc(-c3ncc[nH]3)n(CCC3CCNCC3)c12 (as salt: trifluoroacetate) (hydrate or solvate) [Example 83, 7-Fluoro-2-(2-1H-imidazolyl)-1-[2-(4-piperidyl)ethyl]-4-trifluoromethyl-1H-imidazo[4,5-c]quinoline] |
| 234 to 235 °C (dec.) | Fc1ccc2c(c1)nc(C(F)(F)F)c1nc(-c3cccs3)n(CCC3CCNCC3)c12 (as salt: trifluoroacetate) (hydrate or solvate) [Example 85, 7-Fluoro-1-[2-(4-piperidyl)ethyl]-2-(2-thienyl)-4-trifluoromethyl-1H-imidazo-[4,5-c]quinoline] |
| 280 to 284 °C (dec.) | Cc1ccc2c(c1)nc(C(F)(F)F)c1nc(-c3ccc[nH]3)n(CCC3CCNCC3)c12 (as salt: trifluoroacetate) (hydrate or solvate) [Example 87, 7-Methyl-1-[2-(4-piperidyl)ethyl]-2-(2-pyrrolyl)-4-trifluoromethyl-1H-imidazo-[4,5-c]quinoline] |
| 239 to 241 °C (dec.) | Cc1ccc2c(c1)nc(C(F)(F)F)c1nc(-c3nccs3)n(CCC3CCNCC3)c12 (as salt: trifluoroacetate) (hydrate or solvate) [Example 88, 7-Methyl-1-[2-(4-piperidyl)ethyl]-2-(2-thiazolyl)-4-trifluoromethyl-1H-imidazo-[4,5-c]quinoline] |
| 236 to 238 °C (dec.) | Cc1ccc2c(c1)nc(C(F)(F)F)c1nc(-c3cccs3)n(CCC3CCNCC3)c12 (as salt: trifluoroacetate) (hydrate or solvate) [Example 91, 7-Methyl-1-[2-(4-piperidyl)ethyl]-2-(2-thienyl)-4-trifluoromethyl-1H-imidazo-[4,5-c]quinoline] |
| 227 to 229 °C (dec.) | Cc1cccc2c1nc(C(F)(F)F)c1nc(-c3cccs3)n(CCC3CCNCC3)c12 (as salt: trifluoroacetate) (hydrate or solvate) [Example 98, 6-Methyl-1-[2-(4-piperidyl)ethyl]-2-(2-thienyl)-4-trifluoromethyl-1H-imidazo-[4,5-c]quinoline] |
| 234 to 235 °C (dec.) | Cc1ccc2c(c1)nc(C(F)(F)F)c1nc(-c3ccccc3)n(CCC3CCNCC3)c12 (as salt: trifluoroacetate) [Example 86, 7-Methyl-2-phenyl-1-[2-(4-piperidyl)ethyl]-4-trifluoromethyl-1H-imidazo[4,5-c]-quinoline] |

— patent US20040054182A1, “1h-imidazopyridine derivatives” (priority 2000, published 2004)
